Measurements from publication PMC8283942 (Journal of the American Chemical Society, 2021).

Target: SsTyrH (heme-dependent L-tyrosine hydroxylase)
Assay: UV–vis substrate titration
Format: binding, Streptomyces sclerotialus

N[C@@H](Cc1ccc(O)cc1)C(=O)O [Tyr, L-tyrosine]
Kd: 109 ± 5 µM
